Patent US12403166B2, “Labisia pumila extract composition and its pharmaceutical formulation” (MEDIKA NATURA SDN. BHD., priority 2021, dated 2025)

Experiments:
[1] = test system: glutathione S-transferase (GST); details: DIO rats, 30 mg/kg, P≤0.05
[2] = test system: glutathione peroxidase (GPx); assay: Glutathione peroxidase (GPx) in DIO rats (anti-oxidant); assay type: in vivo, rat; details: 30 mg/kg, P≤0.01

## CCCCCCCCCCC[C@@H](C[C@@H]1OC(=O)[C@H]1CCCCCC)OC(=O)[C@H](CC(C)C)NC=O [Orlistat]
[1]
  increase in GST as compared to DIO control group: 10.4%
[2]
  increase in GPx as compared to DIO control group: 40.9%
